Test results: patent US10550107B2, “Process for the preparation of N-[4-[(3-chloro-4-fluoro phenyl) amino]-7-[[(3s-tetrahydro-3-furanyl]oxy]-6-quinazolinyl]-4-(dimethyl amino)-(2E)-2-butenamide (2Z)-2-butenedioate (1:2) and its polymorphs thereof” (MSN LABORATORIES PRIVATE LIMITED, priority 2015, dated 2020)

Experiment: Polymorphic stability of crystalline Form-R
Format: physicochemical
Conditions: at various conditions (not specified)

Question: For `CN(C)C/C=C/C(=O)Nc1cc2c(Nc3ccc(F)c(Cl)c3)ncnc2cc1O[C@H]1CCOC1.O=C(O)/C=C\C(=O)O` [Form-R, N-[4-[(3-chloro-4-fluorophenyl)amino]-7-[[(3S)-tetrahydro-3-furanyl]oxy]-6-quinazolinyl]-4-(dimethylamino)-(2E)-2-butenamide (2Z)-2-butenedioate (1:2)], which “stability of the crystalline form / conversion to other crystalline forms” value is on record?
Answer: stable at various conditions and does not convert to any of the other crystalline forms
